This is an account of results in patent US20060160906A1, “Polyamine analogs as therapeutic agents for ocular diseases” (priority 2004, published 2006).

In data set [1] the test system is retinal function (ERG a- and b-wave amplitudes). The data set is described as follows: Retinal function assessed by electroretinograms (ERG). It counts as in vivo, C57BL/6 mice. As for the experimental part:
Adult female C57BL/6 mice were given an intravitreous injection of 2, 4, or 20 μg of CGC-11144 in one eye and an injection of vehicle in the fellow eye and after 3 days ERGs were recorded as previously described (Okoye et al., J. Neuosci. 23: 4164-4172 (2003)). ERGs were also performed after daily periocular injections of 0.2 mg of CGC-11144 for 2 weeks. Mice were dark-adapted for a standardized 12-hour period overnight and ERG recordings were performed using the Espion ERG Diagnosys (Diagnosys LLL, Littleton, Mass.). All manipulations were done with dim red light illumination. Beginning the same time each morning, mice were anesthetized by ip injection of 25 μl/g body weight of Avertin (Aldrich, Milwaukee, Wis.) diluted 1:39 in PBS. Corneas were anesthetized with a drop of 0.5% proparacaine hydrochloride (Alcon Labs) and pupils were dilated with 1% tropicamide. Mice were placed on a pad heated to 39° C. and platinum electrodes were placed on each cornea after application of gonioscopic prism solution (Alcon Labs). The reference electrode was placed subcutaneously in the anterior scalp between the eyes, and the ground electrode was inserted into the tail. Electrode impedance was balanced for each eye pair measured. The head of the mouse was placed in a standardized position in a Ganzfeld bowl illuminator that assured equal illumination of the eyes. Simultaneous recordings from both eyes were made for eleven intensity levels of white light ranging from −3.00 to +1.40 log cd-s/m^2. The Espion ERG machine measures the ERG response six times at each flash-intensity and records the average value.

Data set [2] is described as follows: Tolerability of intraperitoneal injections in mice. It counts as in vivo.
Setting [3] is: intravitreous 2 μg, after 3 days.

Entries after “also recorded” stand apart in the source; their conditions may differ.

Regarding `CCNCCCCNCCCCNCCCCNCCCCNC/C=C/CNCCCCNCCCCNCCCCNCCCCNCC.Cl.Cl.Cl.Cl.Cl.Cl.Cl.Cl.Cl.Cl` [CGC-11144], the “ERG a- and b-wave amplitudes vs vehicle” value in data set [1] (daily periocular 200 μg for 14 days) was “normal ERG a- and b-wave amplitudes; also recorded: no difference in mean a-wave or b-wave amplitudes”. Besides, in data set [1] (setting [3]), the ERG a-wave amplitudes entry was “only mildly decreased at highest flash intensities” and the ERG b-wave amplitudes result is given as “profoundly reduced at all flash intensities”. Besides, the ERG amplitudes result in data set [1] (intravitreous 10 μg, after 3 days) is on record as “striking decrease in ERG amplitudes”. For the same compound, the “ERG a- and b-wave amplitudes” value in data set [1] (intravitreous 20 μg, after 3 days) is “dramatically reduced”. For the same compound, in data set [1] (intravitreous 2, 4, or 20 μg, after 3 days, p<0.05), the “ERG b-wave amplitudes compared to PBS” value was “significant decrease in b-wave amplitudes”. Also, the “ERG a-wave amplitudes compared to PBS” value in data set [1] (intravitreous 4 or 20 μg, after 3 days, p<0.05) is “significant decrease in a-wave amplitudes”. Moreover, the tolerability entry in data set [2] (ip 10 mg/kg twice a week) is “well tolerated”. The tolerability result in data set [2] (ip 20 mg/kg twice a week, 2-week treatment period) was “not well tolerated and several mice died”.
